Publication PMC6934184, “Selective DNA-PKcs inhibition extends the therapeutic index of localized radiotherapy and chemotherapy” (The Journal of Clinical Investigation, 2019)

Target: T1, ADRBK2 (GRK3) (Homo sapiens, UniProt P35626)
T1 construct: purchased Thermo Fisher Scientific (Life Technologies) SelectScreen
Experiment: SelectScreen Z'LYTE
Assay type: biochemical
How it was run: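 Compound tested in SelectScreen activity assays, Z'LYTE for CSF1R, CDK1/cyclin B and MAP2K6 and Adapta for CAMK1. ATP for CAMK1 was listed as 10, and Km app was used for CSF1R. Results are expressed in percent.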

T1 sequence (P35626 whole entry): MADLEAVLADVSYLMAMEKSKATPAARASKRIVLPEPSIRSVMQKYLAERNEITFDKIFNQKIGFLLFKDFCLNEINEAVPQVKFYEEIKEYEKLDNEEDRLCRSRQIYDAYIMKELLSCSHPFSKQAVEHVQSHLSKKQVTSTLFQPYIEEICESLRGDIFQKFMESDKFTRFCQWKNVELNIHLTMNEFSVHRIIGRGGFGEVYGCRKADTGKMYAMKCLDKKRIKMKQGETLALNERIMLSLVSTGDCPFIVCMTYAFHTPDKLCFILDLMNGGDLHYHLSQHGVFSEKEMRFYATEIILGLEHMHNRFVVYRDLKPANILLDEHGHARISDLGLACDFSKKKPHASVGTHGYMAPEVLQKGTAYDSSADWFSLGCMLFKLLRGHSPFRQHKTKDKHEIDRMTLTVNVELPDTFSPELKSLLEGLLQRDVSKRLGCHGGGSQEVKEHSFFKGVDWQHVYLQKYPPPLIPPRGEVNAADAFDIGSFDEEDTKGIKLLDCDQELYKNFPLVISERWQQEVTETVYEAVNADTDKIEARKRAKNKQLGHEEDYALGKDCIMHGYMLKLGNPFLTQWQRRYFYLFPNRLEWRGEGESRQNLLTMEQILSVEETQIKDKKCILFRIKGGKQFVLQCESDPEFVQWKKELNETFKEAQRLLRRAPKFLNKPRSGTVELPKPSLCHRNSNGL

Structure (SMILES): CN(C(=O)CN1CCOCC1)c1ccc2sc3c(-c4cccc5c(=O)cc(N6CC7CCC(C6)O7)oc45)cccc3c2c1 [NU5455]
- inhibition at 1 µM: 2.8%
